Results on 1 compound are retold here after publication PMC8999917, “Structure–Activity Relationship of Synthetic Ginkgolic Acid Analogs for Treating Type 2 Diabetes by PTPN9 Inhibition” (International Journal of Molecular Sciences, 2022).

Type in all cases: cell-based, mouse
Assay [1] concerns 3T3-L1 adipocytes. As to the kind of experiment: 2-NBDG glucose uptake assay in differentiated 3T3-L1 adipocytes. As to conditions: 10 µM, plate reader fluorescence. The procedure: (§1) PTPN9 inhibitors have been reported to increase glucose uptake. To clarify the antidiabetic effects of GA analogs, a 2-NBDG (a fluorescent glucose probe) uptake assay was performed using differentiated 3T3-L1 adipocytes and C2C12 myotubes. After 16 h of starvation, differentiated 3T3-L1 adipocytes were incubated with compounds 1e and 1f for another 1 h. The cells were subsequently incubated with 2-NBDG for 30 min and washed with PBS before quantifying the fluorescence of 2-NBDG taken up by the cells. The 2-NBDG uptake-increasing effects of GA and its analogs in 3T3-L1 cells were monitored via confocal microscopy. The blank group was set in the absence of 2-NBDG but was treated with DMSO to determine the basal fluorescence levels in 3T3-L1 adipocytes (Figure 4A, Basal); in the negative control group, 3T3-L1 adipocytes were treated with 2-NBDG and DMSO for the evaluation of basal glucose uptake levels (Figure 4A, DMSO). […] Furthermore, to quantify 2-NBDG uptake, fluorescence intensity (Ex/Em = 485/535 nm) was measured using a plate reader. […] After incubation, the cells were washed with pre-cold PBS, and the fluorescence intensity was measured using a fluorescence microplate reader (Victor^TM X4, PerkinElmer, Waltham, MA, USA) (Ex/Em = 485/535 nm). […]

For assay [2], the system named is C2C12 myotubes. As to the kind of experiment: 2-NBDG glucose uptake assay in C2C12 myotubes. As to conditions: 10 µM, plate reader fluorescence. The procedure:
as §1

The test system of assay [3] is Akt phosphorylation in PA-induced insulin-resistant C2C12 cells. Kind of assay: Palmitic acid-induced insulin resistance in C2C12 myotubes (p-Akt). Particulars: PA (250 µM, 16 h)-treated C2C12, 5 μM compound for 30 min with 100 nM insulin. The procedure: Since insulin plays an important role in regulating glucose metabolism through the redistribution of GLUT4 from intracellular vesicles to the cell surface, it is important to describe the interaction between 1e and insulin in the Akt pathway. […] Next, we evaluated the protective effects of 1e against PA-induced insulin resistance in C2C12 myotubes. To generate an insulin resistance model, C2C12 myotubes were treated with 250 µM PA in a serum-free medium for 16 h. Akt phosphorylation levels in PA-treated C2C12 cells decreased by 50% compared to levels in normal C2C12 cells (Figure 6C). Furthermore, in the presence of insulin and GA, Akt phosphorylation levels decreased only by 30% compared to levels in normal cells. […] In addition, the GA analogs induced no cytotoxic effects in C2C12 muscle cells (data not shown). […] The expression levels of glucose uptake-related proteins were determined via Western blotting, as previously described. In brief, differentiated 3T3-L1 cells were plated in six-well plates at a 1.5 × 10^4 cells/well density in a final volume of 2 mL. […] Secondary antibodies were added to the membranes at a concentration of 1:2000 for 1 h at room temperature, and immunoreactive bands were detected via ECL (GE Healthcare Korea Co., Ltd., Incheon, Korea). […]

Regarding `CCCCCCCCCCCCCOc1cccc(O)c1C(=O)O` [Compound 1e], the “2-NBDG uptake increase compared to the DMSO control” value is “approximately 2.0 fold” in assay [1] and approximately 1.4 fold in assay [2]. For the same compound, the “Akt phosphorylation in PA-induced insulin-resistant C2C12 cells” value in assay [3] is recorded as “restoring it to levels similar to those in the non-insulin-resistant group”.
